This passage reports EC50 and IC50 results from paper PMC7436063, “Bioactive Chemical Composition of Cannabis Extracts and Cannabinoid Receptors” (Molecules, 2020).

Bounds are passed on as bounds.

One test has as its target T1, CB1 (Homo sapiens, UniProt P21554).
T1 construct: gene CNR1; expressed in CHO-K1-CB1 cell line (DiscoverX), cAMP reporter platform
The test is described as follows: cAMP assay (HitHunter), inhibition of forskolin-stimulated cAMP in CHO-K1-CB1 cells. The class given is cell-based. From the text: cAMP assay (HitHunter), inhibition of forskolin-stimulated cAMP in CHO-K1-CB1 cells on CB1
For orientation: Changes in cAMP serve as a functional read-out for many G protein-coupled receptors.

For the next test, the target named is T2, CB2 (Homo sapiens, UniProt P34972).
T2 construct: gene CNR2; expressed in CHO-K1-CB2 cell line (DiscoverX), cAMP reporter platform
The test is described as follows: cAMP assay (HitHunter), inhibition of forskolin-stimulated cAMP in CHO-K1-CB2 cells. Format: cell-based. From the text:
cAMP assay (HitHunter), inhibition of forskolin-stimulated cAMP in CHO-K1-CB2 cells on CB2

The mark [1] stands for this setting: read-out: Receptor Potency (μM) / ^b IC50 (Antagonist) / CB1.

T1 sequence (P21554 whole entry): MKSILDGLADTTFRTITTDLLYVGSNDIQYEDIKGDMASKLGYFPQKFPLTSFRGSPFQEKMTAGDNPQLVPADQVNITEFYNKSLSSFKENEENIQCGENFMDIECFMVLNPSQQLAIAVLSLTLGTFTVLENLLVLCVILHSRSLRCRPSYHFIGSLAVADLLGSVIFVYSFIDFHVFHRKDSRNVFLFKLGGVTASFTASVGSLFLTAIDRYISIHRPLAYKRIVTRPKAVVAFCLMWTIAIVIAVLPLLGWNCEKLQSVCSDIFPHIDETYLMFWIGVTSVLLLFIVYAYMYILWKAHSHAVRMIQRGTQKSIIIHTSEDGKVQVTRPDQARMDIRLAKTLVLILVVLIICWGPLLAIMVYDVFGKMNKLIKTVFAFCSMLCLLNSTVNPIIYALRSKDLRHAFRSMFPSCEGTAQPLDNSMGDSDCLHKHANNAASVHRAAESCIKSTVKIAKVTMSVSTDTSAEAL
T2 sequence (P34972 whole entry): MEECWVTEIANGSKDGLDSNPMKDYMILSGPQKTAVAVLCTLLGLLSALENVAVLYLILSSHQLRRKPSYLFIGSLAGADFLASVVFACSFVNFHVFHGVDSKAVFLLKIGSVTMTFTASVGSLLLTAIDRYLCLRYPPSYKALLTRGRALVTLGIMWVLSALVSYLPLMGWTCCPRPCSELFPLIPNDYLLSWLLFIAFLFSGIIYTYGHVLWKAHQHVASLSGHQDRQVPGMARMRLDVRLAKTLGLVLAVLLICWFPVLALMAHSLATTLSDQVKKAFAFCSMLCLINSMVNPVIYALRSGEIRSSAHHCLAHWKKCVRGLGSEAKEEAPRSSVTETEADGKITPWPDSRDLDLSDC

Take `C=C(C)[C@@H]1CCC(C)=C[C@H]1c1c(O)cc(CCCCC)c(C(=O)O)c1O` [CBDA]: the values for the EC50 on CB1 (read-out: Receptor Potency (μM) / ^a EC50 (Agonist) / CB1) and at CB2 (read-out: Receptor Potency (μM) / ^a EC50 (Agonist) / CB2) were 17 ± 3 µM and 17 ± 4 µM, respectively. The IC50 at CB1 (setting [1]) and at CB2 (setting [1]) was above 10 µM in each case.
